Laboratory results from patent US8048873B2, “Synergistic pharmaceutical combination for the prevention or treatment of diabetes” (N-Gene Research Laboratories, Inc., priority 2001, dated 2011).

Tested on: New Zealand white rabbits
Experiment: Hyperinsulinaemic euglycaemic glucose clamp studies (insulin sensitivity by glucose infusion rate at steady state)
Assay type: in vivo, rabbit
Conditions: measured on 6th day
Protocol: Adult male New Zealand white rabbits weighing 3-3.2 kg, housed in an animal room (12-hour light/dark periods a day, temperature of 22-25° C., relative humidity of 50-70%) with one animal per pen, fed commercial laboratory chow and tap water ad libitum, were used throughout. The animals underwent surgery after a two-week adaptation period.
Surgery was performed under aseptic conditions. The rabbits were anaesthetized with an intravenous bolus of 10 mg/kg diazepam (Sigma, St. Louis, Mo., USA) and 5 mg/kg ketamine (EGIS Pharmaceuticals Ltd., Budapest, Hungary). […] Polyethylene catheters were inserted into two major branches of the jugular vein and the left carotid artery. The catheters were exteriorised through the back of the neck. These lines were kept patent by filling with sodium heparin solution (100 IU/ml).
Hyperinsulinaemic Euglycaemic Glucose Clamp Studies
Blood samples (0.3 ml) were taken from the arterial cannula for blood glucose concentration at 10 min intervals. […] When blood glucose had stabilized for at least 30 min, we defined this condition as steady state. In the steady state, additional blood samples (0.5 ml) were taken for plasma insulin determination at 10-min intervals. The glucose infusion rate (mg/kg/min) during steady state was used to characterize insulin sensitivity [DeFronzo R. A. et al., Am. […] The test compound(s) was/were administered to healthy and hypercholesterolaemic animals, respectively, perorally, in a single dose, daily, for five days, and the glucose infusion rates determined on the 6th day were averaged within each test group consisting of 6 animals. One group of the healthy and one of the hypercholesterolaemic animals was used as the control.
It is favourable that a higher amount of glucose should be needed at the given constant blood glucose level which indicates the enhanced effect of insulin.

SMILES: Cc1c(C)c2c(c(C)c1O)CCC(C)(COc1ccc(CC3SC(=O)NC3=O)cc1)O2 (racemic) [Troglitazone, (±)-5-[[4-[(3,4-dihydro-6-hydroxy-2,5,7,8-tetramethyl-2H-1-benzopyran-2-yl)methoxy]-phenyl]methyl]-2,4-thiazolidinedione]
- Insulin sensitivity as characterized by the glucose infusion rate during steady state (Table 2, HC (hypercholesterolaemic) animals, troglitazone 75 mg/kg daily dose p.o. for five days): 14.1 ± 1.33 mg/kg/min
- Insulin sensitivity as characterized by the glucose infusion rate during steady state (Table 2, normal (healthy) animals, troglitazone 75 mg/kg daily dose p.o. for five days): 14.3 ± 0.08 mg/kg/min

SMILES: CN(C)C(=N)N=C(N)N [Metformin, N,N-dimethylimidocarbonimidic diamide]
- Insulin sensitivity as characterized by the glucose infusion rate during steady state (Table 1, HC (hypercholesterolaemic) animals, metformin 100 mg/kg daily dose p.o. for five days): 11.7 ± 0.87 mg/kg/min
- Insulin sensitivity as characterized by the glucose infusion rate during steady state (Table 1, normal (healthy) animals, metformin 100 mg/kg daily dose p.o. for five days): 15.8 ± 0.83 mg/kg/min
